Results taken from PubChem BioAssay (NCI).
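Interpolation was linear, between the two tested concentrations surrounding the appropriate level; five concentrations were tested over 48 hours in 96-well plates. GI50: concentration for 50% inhibition of growth. Definition used: TGI = concentration required for complete inhibition of growth.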

Experiments:
Test in all cases: DTP human tumour cell line panel, 48 h
[1] = test system: LOX IMVI melanoma
[2] = test system: OVCAR-8 ovarian
[3] = test system: SW-620 colon
[4] = test system: NCI-H23 lung
[5] = test system: NCI-H226 lung
[6] = test system: RPMI-8226 leukemia
[7] = test system: SF-268 CNS
[8] = test system: T-47D breast
[9] = test system: RXF 393 renal
[10] = test system: SR leukemia

Row | Compound | GI50 [1] [µM] | TGI [1] [µM] | GI50 [2] [µM] | TGI [2] [µM] | GI50 [3] [µM] | TGI [3] [µM] | GI50 [4] [µM] | TGI [4] [µM] | GI50 [5] [µM] | TGI [5] [µM] | GI50 [6] [µM] | TGI [6] [µM] | GI50 [7] [µM] | TGI [7] [µM] | GI50 [8] [µM] | TGI [8] [µM] | GI50 [9] [µM] | TGI [9] [µM] | GI50 [10] [µM] | TGI [10] [µM]
1 | COc1ccc(-c2cc(-c3nnc(SCC(=O)Nc4ccc(C(C)=O)cc4)o3)c3ccccc3n2)cc1 | 73.7 | > 100 | 48.9 | > 100 | > 100 | > 100 | 25.4 | > 100 | 43.6 | > 100 | > 100 | > 100 | 29.1 | > 100 | > 100 | > 100 | 18.1 | 57.5 |  | 
2 | NC(N)=N/N=C/c1c(-c2ccc(Cl)c([N+](=O)[O-])c2)nc2ccccn12 |  |  |  |  | 1.46 | 3.16 | 1.92 | 3.95 |  |  |  |  | 1.35 | 2.93 | 2.08 | 5.01 |  |  |  | 
3 | COc1ccc(-c2csc3c2-n2cccc2C3=O)cc1O | < 0.0182 | > 100 | 0.0281 | > 100 | < 0.0122 | > 100 | 0.056 | > 42.4 | 12.1 | > 46.6 | 0.0176 | 3.16 | < 0.0284 | > 82.2 | 39.4 | > 100 |  |  | < 0.01 | 31.9
4 | CC(=O)Nc1ccc(-c2nnc(SCC(=O)Nc3ccccc3C)o2)cc1 |  | > 100 |  | > 100 |  | > 100 |  | > 100 |  | > 100 |  | > 100 |  | > 100 |  |  |  | > 100 |  | > 100
5 | COC(=O)n1c(CBr)c(Br)c2ccccc21 |  |  |  | > 100 |  | > 100 |  | 71 |  | 33.6 |  | 58.7 |  | 75.8 |  |  |  |  |  | 80.6
6 | O=CN1CCN(C=S)CC1 |  | > 100 |  | > 100 |  | > 100 |  | > 100 |  | > 100 |  | > 100 |  | > 100 |  |  |  | > 100 |  | > 100
7 | COc1ccc2c(c1)CCCC1C3=NCCC3(C)CSC21 (stereo not drawn) |  | > 100 |  | > 100 |  | > 100 |  | > 100 |  |  |  | > 100 |  | > 100 |  |  |  | > 100 |  | 
8 | O=C1CC/C(=C\COc2ccc3ccc(=O)oc3c2)O1 | 6.96 | 20.6 | 16.6 | 40.8 | 2.35 | 14.9 | 11.7 | 30 | 22.4 | 83.1 | 1.07 | 17.3 | 11.9 | 63 | 4.83 | 27.1 | 8.41 | 31.9 |  | 
9 | CC(=O)OC12CC(C)C3(O)C4C=C(C)C(=O)[C@@]4(O)CC(CO)=C[C@H]3C1C2(C)C (stereo partly drawn) | > 1000 | > 1000 | > 1000 | > 1000 |  |  | > 1000 | > 1000 | > 1000 | > 1000 | > 1000 | > 1000 | > 1000 | > 1000 |  |  |  |  | > 1000 | > 1000
